Measurements published in ChEMBL document CHEMBL4373724, “An overview of recent progress in siderophore-antibiotic conjugates” (2019).
In brackets after ≈: the same amount, converted by molar mass.

What was measured:
Format in all cases: functional
Pseudomonas aeruginosa [1] = assay: Antimicrobial activity against Pseudomonas aeruginosa X621 under iron-sufficient condition by broth microdilution method
Escherichia coli [2] = assay: Antimicrobial activity against Escherichia coli EC14 under iron-sufficient condition by broth microdilution method
Micrococcus luteus [3] = assay: Antimicrobial activity against Micrococcus luteus under iron-deficient condition by broth microdilution method
Pseudomonas aeruginosa [4] = assay: Antimicrobial activity against Pseudomonas aeruginosa X621 under iron-deficient condition by broth microdilution method
Escherichia coli [5] = assay: Antimicrobial activity against Escherichia coli EC14 under iron-deficient condition by broth microdilution method
Staphylococcus aureus [6] = assay: Antimicrobial activity against Staphylococcus aureus X1.1 under iron-deficient condition by broth microdilution method
Micrococcus luteus [7] = assay: Antimicrobial activity against Micrococcus luteus under iron-sufficient condition by broth microdilution method
Staphylococcus aureus [8] = assay: Antimicrobial activity against Staphylococcus aureus X1.1 under iron-sufficient condition by broth microdilution method
Pseudomonas aeruginosa [9] = assay: Antimicrobial activity against Pseudomonas aeruginosa X620 under iron-deficient condition by broth microdilution method
Escherichia coli [10] = assay: Antimicrobial activity against Escherichia coli X580 under iron-deficient condition by broth microdilution method
Escherichia coli [11] = assay: Antimicrobial activity against Escherichia coli X580 under iron-sufficient condition by broth microdilution method
Pseudomonas aeruginosa [12] = assay: Antimicrobial activity against Pseudomonas aeruginosa X620 under iron-sufficient condition by broth microdilution method
Pseudomonas aeruginosa [13] = assay: Antimicrobial activity against Pseudomonas aeruginosa ATCC 27853 after 18 hrs by CLSI protocol based broth microdilution method; details: ATCC 27853, 18 h
Klebsiella pneumoniae = assay: Antimicrobial activity against Klebsiella pneumoniae 700603 after 18 hrs by CLSI protocol based broth microdilution method; details: Klebsiella pneumoniae, 700603, 18 h
Klebsiella aerogenes = assay: Antimicrobial activity against Enterobacter aerogenes ATCC 35029 after 18 hrs by CLSI protocol based broth microdilution method; details: ATCC 35029, 18 h
Enterococcus faecium = assay: Antimicrobial activity against Enterococcus faecium NCTC after 18 hrs by CLSI protocol based broth microdilution method
Escherichia coli [14] = assay: Antimicrobial activity against Escherichia coli ATCC 25922 after 18 hrs by CLSI protocol based broth microdilution method; details: ATCC 25922, 18 h
Acinetobacter baumannii = assay: Antimicrobial activity against Acinetobacter baumannii ATCC 17961 after 18 hrs by CLSI protocol based broth microdilution method; details: ATCC 17961, 18 h
Staphylococcus aureus [15] = assay: Antimicrobial activity against Staphylococcus aureus SG 511 after 18 hrs by CLSI protocol based broth microdilution method; details: SG 511, 18 h
Streptococcus pneumoniae = assay: Antimicrobial activity against Streptococcus pneumoniae PARK
Streptococcus = assay: Antimicrobial activity against Streptococcus AC283
Staphylococcus aureus [16] = assay: Antimicrobial activity against Staphylococcus aureus X1.1
Staphylococcus aureus [17] = assay: Antimicrobial activity against Staphylococcus aureus V41

| MIC (Pseudomonas aeruginosa [13]) [µM] | MIC (Klebsiella pneumoniae) [µM] | MIC (Klebsiella aerogenes) [µM] | MIC (Enterococcus faecium) [µM] | MIC (Escherichia coli [14]) [µM] | MIC (Acinetobacter baumannii) [µM] | MIC (Staphylococcus aureus [15]) [µM] | Structure (SMILES) | also measured |
| --- | --- | --- | --- | --- | --- | --- | --- | --- |
| – | – | – | – | – | – | – | CN[C@H](CC(C)C)C(=O)N[C@H]1C(=O)N[C@@H](CC(N)=O)C(=O)N[C@H]2C(=O)N[C@H]3C(=O)N[C@H](C(=O)N[C@H](C(=O)O)c4cc(O)cc(O)c4-c4cc3ccc4O)[C@H](O)c3ccc(c(Cl)c3)Oc3cc2cc(c3O[C@@H]2O[C@H](CO)[C@@H](O)[C@H](O)[C@H]2O[C@H]2C[C@](C)(NC(=O)CCC(=O)N(O)CCCCCNC(=O)CCC(=O)N(CCCCNC(=O)c3cccc(O)c3O)CCCNC(=O)c3cccc(O)c3O)[C@H](O)[C@H](C)O2)Oc2ccc(cc2Cl)[C@H]1O | MIC (Pseudomonas aeruginosa [1]): > 128 µM; MIC (Escherichia coli [2]): > 128 µM; MIC (Micrococcus luteus [3]): 16 µM (≈ 34.4 µg/mL); MIC (Pseudomonas aeruginosa [4]): > 128 µM; MIC (Escherichia coli [5]): > 128 µM; MIC (Staphylococcus aureus [6]): 8 µM (≈ 17.2 µg/mL); MIC (Micrococcus luteus [7]): 16 µM (≈ 34.4 µg/mL); MIC (Staphylococcus aureus [8]): 8 µM (≈ 17.2 µg/mL); MIC (Pseudomonas aeruginosa [9]): > 128 µM; MIC (Escherichia coli [10]): 128 µM (≈ 275 µg/mL); MIC (Escherichia coli [11]): 32 µM (≈ 68.8 µg/mL); MIC (Pseudomonas aeruginosa [12]): > 128 µM |
| 128 (≈ 68.2 µg/mL) | 16 (≈ 8.52 µg/mL) | 4 (≈ 2.13 µg/mL) | > 128 | 2 (≈ 1.07 µg/mL) | 16 (≈ 8.52 µg/mL) | 32 (≈ 17 µg/mL) | O=C(O)c1cn(C2CC2)c2cc(N3CCN(C(=O)CCC(=O)N(O)CCCCCO)CC3)c(F)cc2c1=O | – |
| – | – | – | – | – | – | – | O=C(CCC(=O)N(CCCCNC(=O)c1cccc(O)c1O)CCCNC(=O)c1cccc(O)c1O)N[C@@H]1C(=O)N2C(C(=O)O)=C(Cl)CC[C@H]12 | MIC (Streptococcus pneumoniae): 64 µg/mL (≈ 89.4 µM); MIC (Streptococcus): 16 µg/mL (≈ 22.3 µM); MIC (Staphylococcus aureus [16]): 64 µg/mL (≈ 89.4 µM); MIC (Staphylococcus aureus [17]): 64 µg/mL (≈ 89.4 µM) |
| 64 (≈ 46.9 µg/mL) | 128 (≈ 93.8 µg/mL) | 4 (≈ 2.93 µg/mL) | > 128 | 2 (≈ 1.47 µg/mL) | 64 (≈ 46.9 µg/mL) | 64 (≈ 46.9 µg/mL) | O=C(CCC(=O)N(O)CCCCCO)NCCCCCN(O)C(=O)CCC(=O)N1CCN(c2cc3c(cc2F)c(=O)c(C(=O)O)cn3C2CC2)CC1 | – |
| > 128 | > 128 | > 128 | > 128 | 128 (≈ 122 µg/mL) | 64 (≈ 60.9 µg/mL) | 64 (≈ 60.9 µg/mL) | O=C(CCC(=O)N(O)CCCCCO)NCCCCCN(O)C(=O)CCC(=O)NCCCCCN(O)C(=O)CCC(=O)N[C@@H](C(=O)N[C@@H]1C(=O)N2C(C(=O)O)=C(Cl)CC[C@H]12)c1ccccc1 | – |
| – | – | – | – | – | – | – | CN[C@H](CC(C)C)C(=O)N[C@H]1C(=O)N[C@@H](CC(N)=O)C(=O)N[C@H]2C(=O)N[C@H]3C(=O)N[C@H](C(=O)N[C@H](C(=O)O)c4cc(O)cc(O)c4-c4cc3ccc4O)[C@H](O)c3ccc(c(Cl)c3)Oc3cc2cc(c3O[C@@H]2O[C@H](CO)[C@@H](O)[C@H](O)[C@H]2O[C@H]2C[C@](C)(NC(=O)CCC(=O)N(CCCCNC(=O)c3cccc(O)c3O)CCCNC(=O)c3cccc(O)c3O)[C@H](O)[C@H](C)O2)Oc2ccc(cc2Cl)[C@H]1O | MIC (Pseudomonas aeruginosa [1]): > 128 µM; MIC (Escherichia coli [2]): > 128 µM; MIC (Micrococcus luteus [3]): 32 µM (≈ 62.4 µg/mL); MIC (Pseudomonas aeruginosa [4]): 32 µM (≈ 62.4 µg/mL); MIC (Escherichia coli [5]): > 128 µM; MIC (Staphylococcus aureus [6]): 32 µM (≈ 62.4 µg/mL); MIC (Micrococcus luteus [7]): 16 µM (≈ 31.2 µg/mL); MIC (Staphylococcus aureus [8]): 32 µM (≈ 62.4 µg/mL); MIC (Pseudomonas aeruginosa [9]): > 128 µM; MIC (Escherichia coli [10]): 128 µM (≈ 249 µg/mL); MIC (Escherichia coli [11]): > 128 µM; MIC (Pseudomonas aeruginosa [12]): > 128 µM |
| > 128 | > 128 | > 128 | > 128 | > 128 | ≥ 128 | 16 (≈ 8.82 µg/mL) | O=C(CCC(=O)N(O)CCCCCO)N[C@@H](C(=O)N[C@@H]1C(=O)N2C(C(=O)O)=C(Cl)CC[C@H]12)c1ccccc1 | – |
| > 128 | > 128 | > 128 | > 128 | ≥ 128 | 32 (≈ 24 µg/mL) | 64 (≈ 48.1 µg/mL) | O=C(CCC(=O)N(O)CCCCCO)NCCCCCN(O)C(=O)CCC(=O)N[C@@H](C(=O)N[C@@H]1C(=O)N2C(C(=O)O)=C(Cl)CC[C@H]12)c1ccccc1 | – |
